Test results as given in PubChem BioAssay (NCI).
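Test compounds were applied to cells in 96-well plates for 48 hours at 5 doses. GI50 is the concentration that inhibits growth by half. TGI: concentration producing complete growth inhibition.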

Legend:
Assay in all cases: NCI tumour cell line growth inhibition, 48 h
786-0 renal = system: 786-0 renal
A549 NSCLC = system: A549 NSCLC
ACHN renal = system: ACHN renal
BT-549 breast = system: BT-549 breast
CAKI-1 renal = system: CAKI-1 renal
CCRF-CEM leukemia = system: CCRF-CEM leukemia
COLO 205 colon = system: COLO 205 colon
DU-145 prostate = system: DU-145 prostate
EKVX NSCLC = system: EKVX NSCLC
HCC-2998 colon = system: HCC-2998 colon
HCT-116 colon = system: HCT-116 colon
HCT-15 colon = system: HCT-15 colon
HL-60(TB) leukemia = system: HL-60(TB) leukemia
HOP-62 NSCLC = system: HOP-62 NSCLC
HOP-92 NSCLC = system: HOP-92 NSCLC
HS 578T breast = system: HS 578T breast
IGROV1 ovarian = system: IGROV1 ovarian
K-562 leukemia = system: K-562 leukemia
KM12 colon = system: KM12 colon
LOX IMVI melanoma = system: LOX IMVI melanoma
MCF7 breast = system: MCF7 breast
MDA-MB-231 breast = system: MDA-MB-231 breast
MDA-MB-435 = system: MDA-MB-435
MOLT-4 leukemia = system: MOLT-4 leukemia
NCI-H226 lung = system: NCI-H226 lung
NCI-H460 lung = system: NCI-H460 lung
NCI-H522 lung = system: NCI-H522 lung
NCI/ADR-RES ovarian = system: NCI/ADR-RES ovarian
OVCAR-3 ovarian = system: OVCAR-3 ovarian
OVCAR-4 ovarian = system: OVCAR-4 ovarian
OVCAR-5 ovarian = system: OVCAR-5 ovarian
OVCAR-8 ovarian = system: OVCAR-8 ovarian
PC-3 prostate = system: PC-3 prostate
RPMI-8226 leukemia = system: RPMI-8226 leukemia
SF-268 CNS = system: SF-268 CNS
SF-295 CNS = system: SF-295 CNS
SK-MEL-2 melanoma = system: SK-MEL-2 melanoma
SK-MEL-28 melanoma = system: SK-MEL-28 melanoma
SK-MEL-5 melanoma = system: SK-MEL-5 melanoma
SK-OV-3 ovarian = system: SK-OV-3 ovarian
SN12C renal = system: SN12C renal
SNB-19 CNS = system: SNB-19 CNS
SNB-75 CNS = system: SNB-75 CNS
SW-620 colon = system: SW-620 colon
T-47D breast = system: T-47D breast
TK-10 renal = system: TK-10 renal
U251 CNS = system: U251 CNS
UACC-62 melanoma = system: UACC-62 melanoma
UO-31 renal = system: UO-31 renal

Cc1nnc2ccnn2c1C
GI50 (786-0 renal): > 100 µM | TGI (786-0 renal): > 100 µM | GI50 (A549 NSCLC): > 100 µM | TGI (A549 NSCLC): > 100 µM | GI50 (ACHN renal): > 100 µM | TGI (ACHN renal): > 100 µM | GI50 (BT-549 breast): > 100 µM | TGI (BT-549 breast): > 100 µM | GI50 (CAKI-1 renal): > 100 µM | TGI (CAKI-1 renal): > 100 µM | GI50 (CCRF-CEM leukemia): > 100 µM | TGI (CCRF-CEM leukemia): > 100 µM | GI50 (COLO 205 colon): > 100 µM | TGI (COLO 205 colon): > 100 µM | GI50 (DU-145 prostate): > 100 µM | TGI (DU-145 prostate): > 100 µM | TGI (EKVX NSCLC): 0.962 µM | GI50 (HCC-2998 colon): 18.1 µM | TGI (HCC-2998 colon): 33.1 µM | GI50 (HCT-116 colon): > 100 µM | TGI (HCT-116 colon): > 100 µM | GI50 (HCT-15 colon): > 100 µM | TGI (HCT-15 colon): > 100 µM | GI50 (HL-60(TB) leukemia): > 100 µM | TGI (HL-60(TB) leukemia): > 100 µM | GI50 (HOP-62 NSCLC): > 100 µM | TGI (HOP-62 NSCLC): > 100 µM | GI50 (HOP-92 NSCLC): > 100 µM | TGI (HOP-92 NSCLC): > 100 µM | GI50 (HS 578T breast): > 100 µM | TGI (HS 578T breast): > 100 µM | GI50 (IGROV1 ovarian): > 100 µM | TGI (IGROV1 ovarian): > 100 µM | GI50 (K-562 leukemia): > 100 µM | TGI (K-562 leukemia): > 100 µM | GI50 (KM12 colon): > 100 µM | TGI (KM12 colon): > 100 µM | GI50 (LOX IMVI melanoma): > 100 µM | TGI (LOX IMVI melanoma): > 100 µM | GI50 (MCF7 breast): > 100 µM | TGI (MCF7 breast): > 100 µM | GI50 (MDA-MB-231 breast): > 100 µM | TGI (MDA-MB-231 breast): > 100 µM | GI50 (MDA-MB-435): > 100 µM | TGI (MDA-MB-435): > 100 µM | GI50 (MOLT-4 leukemia): > 100 µM | TGI (MOLT-4 leukemia): > 100 µM | GI50 (NCI-H226 lung): > 100 µM | TGI (NCI-H226 lung): > 100 µM | GI50 (NCI-H460 lung): > 100 µM | TGI (NCI-H460 lung): > 100 µM | GI50 (NCI-H522 lung): 66.3 µM | TGI (NCI-H522 lung): > 100 µM | GI50 (NCI/ADR-RES ovarian): 20.5 µM | TGI (NCI/ADR-RES ovarian): 43.4 µM | GI50 (OVCAR-3 ovarian): > 100 µM | TGI (OVCAR-3 ovarian): > 100 µM | GI50 (OVCAR-4 ovarian): > 100 µM | TGI (OVCAR-4 ovarian): > 100 µM | GI50 (OVCAR-5 ovarian): 17.6 µM | TGI (OVCAR-5 ovarian): 34.6 µM | GI50 (OVCAR-8 ovarian): > 100 µM | TGI (OVCAR-8 ovarian): > 100 µM | GI50 (PC-3 prostate): > 100 µM | TGI (PC-3 prostate): > 100 µM | GI50 (RPMI-8226 leukemia): > 100 µM | TGI (RPMI-8226 leukemia): > 100 µM | GI50 (SF-268 CNS): > 100 µM | TGI (SF-268 CNS): > 100 µM | GI50 (SF-295 CNS): > 100 µM | TGI (SF-295 CNS): > 100 µM | GI50 (SK-MEL-2 melanoma): > 100 µM | TGI (SK-MEL-2 melanoma): > 100 µM | GI50 (SK-MEL-28 melanoma): > 100 µM | TGI (SK-MEL-28 melanoma): > 100 µM | GI50 (SK-MEL-5 melanoma): 23.8 µM | TGI (SK-MEL-5 melanoma): > 100 µM | GI50 (SK-OV-3 ovarian): > 100 µM | TGI (SK-OV-3 ovarian): > 100 µM | GI50 (SN12C renal): > 100 µM | TGI (SN12C renal): > 100 µM | GI50 (SNB-19 CNS): > 100 µM | TGI (SNB-19 CNS): > 100 µM | GI50 (SNB-75 CNS): > 100 µM | TGI (SNB-75 CNS): > 100 µM | GI50 (SW-620 colon): > 100 µM | TGI (SW-620 colon): > 100 µM | GI50 (T-47D breast): > 100 µM | TGI (T-47D breast): > 100 µM | GI50 (TK-10 renal): > 100 µM | TGI (TK-10 renal): > 100 µM | GI50 (U251 CNS): > 100 µM | TGI (U251 CNS): > 100 µM | GI50 (UACC-62 melanoma): > 100 µM | TGI (UACC-62 melanoma): > 100 µM | GI50 (UO-31 renal): > 100 µM | TGI (UO-31 renal): > 100 µM
